These results are taken from patent publication US11370770B2, “3-arylindazoles as selective MEK4 inhibitors” (priority 2019, dated 2022).

As usually defined, the IC50 is the concentration that inhibits the measured activity by half.

One test deals with MEK2 (Homo sapiens (Human), UniProt P36507). Put plainly: MEK family profiling ADP-Glo, MEK2. The class given is biochemical. The following applies: Erk2 substrate; 0.6 μM ATP; read-out: IC50 MEK isoform 2. A general note: In ADP-Glo the light output rises with the ADP produced.
Chain of MEK2 (P36507 whole entry, canonical isoform): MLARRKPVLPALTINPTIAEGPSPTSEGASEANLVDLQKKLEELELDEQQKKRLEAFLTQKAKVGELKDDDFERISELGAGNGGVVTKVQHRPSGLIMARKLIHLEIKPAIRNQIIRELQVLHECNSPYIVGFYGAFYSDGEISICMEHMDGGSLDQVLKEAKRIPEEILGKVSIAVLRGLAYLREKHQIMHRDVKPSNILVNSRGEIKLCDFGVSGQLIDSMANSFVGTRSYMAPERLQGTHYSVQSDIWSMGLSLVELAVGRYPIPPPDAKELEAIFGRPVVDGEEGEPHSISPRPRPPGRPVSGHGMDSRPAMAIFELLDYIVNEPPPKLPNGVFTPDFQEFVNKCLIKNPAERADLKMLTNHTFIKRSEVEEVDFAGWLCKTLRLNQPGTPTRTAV
Another test has as its target MEK1 (Homo sapiens (Human), UniProt Q02750). Kind of test: MEK family profiling ADP-Glo, MEK1. It counts as biochemical. The following applies: Erk2 substrate; 0.6 μM ATP; read-out: IC50 MEK isoform 1.
A further test has as its target MEK3 (Homo sapiens (Human), UniProt P46734). Kind of test: MEK family profiling ADP-Glo, MEK3. It counts as biochemical. The settings on record: p38α substrate; 0.6 μM ATP; read-out: IC50 MEK isoform 3.
In the next test the target is MEK6 (Homo sapiens (Human), UniProt P52564). Kind of test: MEK family profiling ADP-Glo, MEK6. The settings on record: p38α substrate; 0.6 μM ATP; read-out: IC50 MEK isoform 6. The class given is biochemical.
Chain of MEK6 (P52564 whole entry, canonical isoform): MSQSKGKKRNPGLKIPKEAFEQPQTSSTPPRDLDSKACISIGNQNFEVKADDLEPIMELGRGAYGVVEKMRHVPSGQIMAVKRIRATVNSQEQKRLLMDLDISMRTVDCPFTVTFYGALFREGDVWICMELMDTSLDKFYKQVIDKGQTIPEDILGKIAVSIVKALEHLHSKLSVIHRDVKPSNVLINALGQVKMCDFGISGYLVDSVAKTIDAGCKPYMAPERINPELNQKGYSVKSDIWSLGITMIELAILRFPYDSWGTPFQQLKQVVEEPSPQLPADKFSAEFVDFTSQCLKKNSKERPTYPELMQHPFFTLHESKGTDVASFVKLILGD
A further test deals with MEK5 (Homo sapiens (Human), UniProt Q13163). Put plainly: MEK family profiling ADP-Glo, MEK5. The class given is biochemical. The following applies: Erk5 substrate; 0.6 μM ATP; read-out: IC50 MEK isoform 5.
Chain of MEK5 (Q13163 whole entry, canonical isoform): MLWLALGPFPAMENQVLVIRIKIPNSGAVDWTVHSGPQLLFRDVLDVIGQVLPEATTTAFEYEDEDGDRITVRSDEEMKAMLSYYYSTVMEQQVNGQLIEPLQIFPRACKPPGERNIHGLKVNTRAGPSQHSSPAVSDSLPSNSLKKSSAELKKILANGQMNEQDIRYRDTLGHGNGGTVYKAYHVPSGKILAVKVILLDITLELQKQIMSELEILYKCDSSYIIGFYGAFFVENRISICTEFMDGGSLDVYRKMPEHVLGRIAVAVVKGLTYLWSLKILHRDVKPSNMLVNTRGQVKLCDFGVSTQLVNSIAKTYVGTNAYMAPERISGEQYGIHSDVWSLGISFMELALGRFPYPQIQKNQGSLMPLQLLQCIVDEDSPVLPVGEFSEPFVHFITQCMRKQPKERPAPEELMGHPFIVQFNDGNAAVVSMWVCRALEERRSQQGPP
The next test deals with human MEK4 (Homo sapiens (Human), UniProt P45985). Kind of test: MEK4 ADP-Glo kinase activity assay (p38α substrate). It counts as biochemical. The following applies: for IC50: p38α substrate, value with 95% confidence interval in brackets, read-out: MEK4-p38, IC50, μM [95% Cl].
Chain of human MEK4 (P45985 whole entry): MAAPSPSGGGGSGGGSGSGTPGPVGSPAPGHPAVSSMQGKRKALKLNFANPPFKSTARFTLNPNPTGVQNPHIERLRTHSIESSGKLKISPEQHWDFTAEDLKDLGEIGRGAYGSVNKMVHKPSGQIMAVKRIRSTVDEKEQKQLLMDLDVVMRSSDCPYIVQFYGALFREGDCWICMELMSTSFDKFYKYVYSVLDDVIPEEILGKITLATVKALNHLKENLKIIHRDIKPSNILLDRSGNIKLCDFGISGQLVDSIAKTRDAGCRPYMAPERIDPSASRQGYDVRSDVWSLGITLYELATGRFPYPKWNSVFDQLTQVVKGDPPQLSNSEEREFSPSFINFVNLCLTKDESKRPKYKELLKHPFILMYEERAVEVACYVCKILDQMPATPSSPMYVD
The next test has as its system PC3M cells. Put plainly: Scratch wound assay. It counts as cell-based.

Chain of MEK1 (Q02750 whole entry, canonical isoform): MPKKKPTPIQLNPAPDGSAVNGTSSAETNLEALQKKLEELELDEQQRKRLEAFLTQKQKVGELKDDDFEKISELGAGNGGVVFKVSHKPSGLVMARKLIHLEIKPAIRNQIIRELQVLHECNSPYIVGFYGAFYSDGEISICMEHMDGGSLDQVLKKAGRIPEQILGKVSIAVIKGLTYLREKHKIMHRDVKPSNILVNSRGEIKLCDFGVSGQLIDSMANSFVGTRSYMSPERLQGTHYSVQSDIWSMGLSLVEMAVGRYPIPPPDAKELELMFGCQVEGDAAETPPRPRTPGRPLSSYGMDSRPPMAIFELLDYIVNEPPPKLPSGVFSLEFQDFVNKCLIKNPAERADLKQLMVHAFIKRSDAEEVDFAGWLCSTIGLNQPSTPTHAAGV
Chain of MEK3 (P46734 whole entry, canonical isoform): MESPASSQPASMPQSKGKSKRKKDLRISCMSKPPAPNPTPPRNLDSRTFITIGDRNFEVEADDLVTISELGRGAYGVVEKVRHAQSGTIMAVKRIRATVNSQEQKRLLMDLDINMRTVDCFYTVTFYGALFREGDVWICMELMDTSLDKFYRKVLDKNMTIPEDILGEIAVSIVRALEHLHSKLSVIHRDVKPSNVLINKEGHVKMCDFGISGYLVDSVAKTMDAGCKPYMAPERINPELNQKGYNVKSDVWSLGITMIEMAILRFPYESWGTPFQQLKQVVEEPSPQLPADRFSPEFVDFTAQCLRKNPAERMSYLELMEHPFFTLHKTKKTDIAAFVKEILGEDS

Regarding `Cc1cccc2[nH]nc(-c3ccc(O)cc3)c12` [Compound 6b], the IC50 at MEK2 is 15 µM; on MEK1 it was 11 µM; on MEK3, above 27 µM; on MEK6 it was 21 µM; on MEK5, above 27 µM.
As to `Clc1cccc2[nH]nc(-c3cccnc3)c12` [Compound 6e, 4-chloro-3-(pyridin-3-yl)-2H-indazole], the IC50 at human MEK4 is above 22 µM.
As to `Fc1ccc2c(-c3ccc4c(c3)OCO4)n[nH]c2c1` [Compound 6ee, 3-(2H-1,3-benzodioxol-5-yl)-6-fluoro-2H-indazole], the IC50 at MEK2 is 9.3 µM; on MEK1, 6.6 µM; on MEK3 it was 21 µM; at MEK6 it was 5.8 µM; on MEK5, above 27 µM. The “efficacy in wound scratch assay” value with PC3M cells (10 μM) is reported as “modest efficacy”; with PC3M cells (25 μM) it was “performs better”. The “Percent Difference, DMSO vs. 10 uM inhibitor” value with PC3M cells (PC3M cells, 10 μM, wound gap 0 vs 20 hrs) was found to be 14.93%. The “Percent Difference, DMSO vs. 25 uM inhibitor” value in the test on PC3M cells (PC3M cells, 25 μM, wound gap 0 vs 20 hrs) is on record as 32.15%.
In the case of `CC(C)(O)c1cccc(-c2n[nH]c3cccc(Cl)c23)c1` [Compound 6g, 2-[3-(4-chloro-2H-indazol-3-yl)phenyl]propan-2-ol], the IC50 on human MEK4 was above 22 µM.
For `Oc1ccc(-c2n[nH]c3ccc(C(F)(F)F)cc23)cc1` [Compound 6j, 4-[5-(trifluoromethyl)-2H-indazol-3-yl]phenol], the IC50 at MEK2 was 5.3 µM; on MEK1, 4.6 µM; at MEK6 it was 1.6 µM; at MEK5, above 27 µM.
Turning to `CC(C)(C)OC(=O)n1nc(-c2ccc(O)cc2)c2cc(C(F)(F)F)ccc21` [Compound 6k, tert-butyl 3-(4-hydroxyphenyl)-5-(trifluoromethyl)-1H-indazole-1-carboxylate], the IC50 at human MEK4 was above 20 µM.
Regarding `O=C(O)c1ccc(-c2n[nH]c3ccc(C(F)(F)F)cc23)cc1` [Compound 6n, 4-[5-(trifluoromethyl)-2H-indazol-3-yl]benzoic Acid], the IC50 is above 27 µM on MEK2; 10 µM at MEK1; 2.9 µM on MEK3; 6 µM on MEK6; above 27 µM at MEK5.
Turning to `Cc1ccc2[nH]nc(-c3ccc(F)c(CO)c3)c2c1` [Compound 6o], the IC50 is 5.4 µM on MEK2; 4 µM on MEK1; 6 µM on MEK3; 3.4 µM at MEK6; above 27 µM at MEK5.
For `Cc1ccc2[nH]nc(-c3ccc4c(c3)OCO4)c2c1` [Compound 6p, 3-(2H-1,3-benzodioxol-5-yl)-5-methyl-2H-indazole], the IC50 at MEK2 is 9.1 µM; on MEK1, 6.6 µM; at MEK3, 8.5 µM; at MEK6 it was 3.2 µM; at MEK5, 16 µM.
Consider `Cc1ccc2[nH]nc(-c3ccc(O)cc3)c2c1` [Compound 6q, 4-(5-methyl-2H-indazol-3-yl)phenol], for which the IC50 at MEK2 worked out at 7.2 µM; on MEK1 it was 7.7 µM; on MEK6 it was 2.2 µM; on MEK5 it was 25 µM.
In the case of `Cc1ccc2[nH]nc(-c3ccc(C(N)=O)cc3)c2c1` [Compound 6r, 4-(5-methyl-2H-indazol-3-yl)benzamide], the IC50 on MEK2 amounted to 6.1 µM; on MEK1, 3.9 µM; on MEK3, 4.1 µM; at MEK6, 2.1 µM; at MEK5 it was 19 µM.
The corresponding values for `Cc1ccc2[nH]nc(-c3ccc(C(=O)O)cc3)c2c1` [Compound 6s, 4-(5-methyl-2H-indazol-3-yl)benzoic Acid] are above 27 µM, 17 µM, 12 µM, 8.7 µM and above 27 µM.
Take `COC(=O)c1ccc(-c2n[nH]c3cc(C(F)(F)F)ccc23)cc1` [Compound 6y, methyl 4-[6-(trifluoromethyl)-2H-indazol-3-yl]benzoate]: on human MEK4 (SAR discussion of Table 1), the “MEK4 inhibition” value is “completely inactive”. For the same compound, at human MEK4, the IC50 was above 20 µM.
Regarding `O=C(O)c1ccc(-c2n[nH]c3cc(C(F)(F)F)ccc23)cc1` [Compound 6z, 4-[6-(trifluoromethyl)-2H-indazol-3-yl]benzoic Acid], the IC50 on MEK2 was above 27 µM; on MEK1, 17 µM; on MEK3, above 27 µM; on MEK6, 8.8 µM; on MEK5, 0.35 µM.
On to `O=c1c(-c2ccc(O)cc2)coc2cc(O)cc(O)c12` [Geni, genistein, reference compound], for which the “Percent Difference, DMSO vs. Geni” value in the test on PC3M cells (PC3M cells, genistein 10 μM, wound gap 0 vs 20 hrs) is 33.45%.
